The nature of this data set: Particle size analysis (wet analysis), Malvern Mastersizer 3000 Hydro MV. The class given is physicochemical. To be noted: unmicronised / as supplied, wet analysis method. As for the experimental part:
[…] The pump speed was set to 3000 rpm. […] The dispersed particles were added to the dispersion unit to reach an obscuration of 5-15%. The optical properties used included a refractive index of 1.52 and an absorption value of 1.0 for the glycopyrrolate, and a refractive index of 1.45 and an absorption value of 1.0 for the magnesium stearate and a refractive index of 1.391 for the iso-octane. Six replicates were performed per measurement.

Take `C[N+]1(C)CCC(OC(=O)C(O)(c2ccccc2)C2CCCC2)C1` (stereo not drawn) [Unmicronised glycopyrrolate, glycopyrrolate]: the “D10 particle size of source powder” value is on record as 20.6 μm, the “D50 particle size of source powder” value stood at 148.7 μm and the “D90 particle size of source powder” value is 409.7 μm.

Turning to magnesium stearate, the “D10 particle size of source powder” value was 2.8 μm, the “D50 particle size of source powder” value was found to be 8.8 μm and the “D90 particle size of source powder” value is 27.4 μm.

Source of the values: patent publication US11759791B2, “Jet milling method” (VECTURA LIMITED, priority 2015, dated 2023).
